Article PMC7391726, “Fatty acid mimetic PBI-4547 restores metabolic homeostasis via GPR84 in mice with non-alcoholic fatty liver disease” (Scientific Reports, 2020)
Like-named read-outs stand apart in the source and are kept apart here.

Key:
[1] = system: ob/ob mice; experiment: ob/ob leptin-deficient genetic mouse model of metabolic syndrome; type: in vivo
From the text: We next sought to confirm our above findings obtained from the diet-induced model of obesity by using the ob/ob leptin-deficient genetic mouse model of metabolic syndrome. […] Additionally, the mRNA expression profiles of glucose- and FA-related genes in liver (Fig. S4D,E) and WAT (Fig. S5) also differed between pioglitazone- and PBI-4547-treated mice.

[2] = molecular target: T1, GPR84 (Homo sapiens, UniProt Q9NQS5); experiment: BRET Gαi2 activation biosensor in HEK293 cells transfected with GPR84; type: cell-based; conditions: compound alone vs vehicle
T1 construct: expressed in transfected cells; host or cells: HEK293
T1 sequence (Q9NQS5 whole entry, species assumed): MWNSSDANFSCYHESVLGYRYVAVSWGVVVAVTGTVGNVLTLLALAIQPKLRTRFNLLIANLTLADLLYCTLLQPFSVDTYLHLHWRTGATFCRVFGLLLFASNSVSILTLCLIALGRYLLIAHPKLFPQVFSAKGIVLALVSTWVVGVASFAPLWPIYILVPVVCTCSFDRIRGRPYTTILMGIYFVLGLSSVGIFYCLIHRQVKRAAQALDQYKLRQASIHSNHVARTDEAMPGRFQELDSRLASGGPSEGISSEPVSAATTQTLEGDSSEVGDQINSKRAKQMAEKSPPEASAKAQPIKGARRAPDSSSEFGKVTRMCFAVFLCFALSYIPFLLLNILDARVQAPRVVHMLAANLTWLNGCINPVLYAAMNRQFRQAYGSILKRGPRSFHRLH
From the text: PBI-4547 (2-[3,5-dipentylphenyl]acetate sodium salt) is a medium-chain FA (MCFA) mimetic (Fig. 1A). Accordingly, we examined the signaling properties of PBI-4547 on receptors known to be activated by MCFAs. […] This biosensor consisted of an Rluc8-tagged Gαi2 subunit, a GFP10-tagged Gγ2 subunit, and an untagged Gβ1. Agonist stimulation and receptor activation triggers a physical separation between the Gα-Rluc8 donor and the GFP10-Gγ2 acceptor, resulting in a decrease in BRET signal, whose amplitude is correlated to ligand efficacy. […] (A) Chemical structure of PBI-4547. (B) Gi pathway activation was monitored in HEK293 cells transfected with GPR84 and the Gαi2 activation biosensor. […] (C) β-arrestin 2 recruitment to activated GPR120 receptor was monitored in HEK293 cells transfected with RLuc8-β-arrestin 2 and GPR120-GFP10. (D) Cells transfected with GPR40 and Gαq or Gαi2 activation biosensor were exposed to increasing concentrations of PBI-4547 or to 500 µM of sodium decanoate, and BRET variation compared with vehicle was measured. Cells were exposed to increasing concentrations of PBI-4547 or to 100 µM of GW9508, and BRET variation compared with vehicle was measured. (E) LanthaScreen TR-FRET competitive binding assay of PBI-4547 and PPAR control agonists to the LBD of PPARα, PPARδ and PPARγ. (F) Cell-based GAL4 transactivation assay in HEK293 cells transfected with the LBD of PPARα, PPARδ or PPARγ, and treated with increasing concentrations of PBI-4547 or PPAR control agonists. Data in (B–D) are expressed as means ± SEM of 4–5 experiments; data in (E,F) are from a representative experiment from a total of 3 to 4 independent experiments. BRET measurements in transiently transfected HEK293 cells were performed as previously described. Ligands were incubated with cells at room temperature for 10 min (G protein biosensors) or 25 min (β-arrestin/GPR120) before collecting BRET[2] readings between Rluc8 and GFP10.

[3] = molecular target: T2, GPR40 (Homo sapiens, UniProt O14842); parameters: method as in PMID 29454750; conditions: previously reported, cited from earlier work
T2 construct: expressed in transfected cells; host or cells: HEK293
T2 sequence (O14842 whole entry, species assumed): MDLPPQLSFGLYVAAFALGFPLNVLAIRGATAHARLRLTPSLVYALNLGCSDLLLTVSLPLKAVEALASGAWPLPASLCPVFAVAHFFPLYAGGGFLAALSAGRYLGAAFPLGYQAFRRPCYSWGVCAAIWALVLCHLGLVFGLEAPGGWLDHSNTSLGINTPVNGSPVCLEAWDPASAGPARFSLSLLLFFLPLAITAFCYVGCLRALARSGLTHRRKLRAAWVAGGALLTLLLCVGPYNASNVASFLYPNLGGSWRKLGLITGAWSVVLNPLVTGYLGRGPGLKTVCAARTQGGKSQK

## CCc1ccc(CCOc2ccc(CC3SC(=O)NC3=O)cc2)nc1 (stereo not shown) [pioglitazone, reference compound]
[1]
  bodyweight: increased trend towards weight gain

## CCCCCCCCCC(=O)[O-].[Na+] [sodium decanoate]
[2]
  GPR84/Gαi2-mediated BRET signal modulation (agonist mode): induced a BRET signal decrease
[3]; Gαi2, read-out: EC50, GPR40 Gαi2
  EC50: 16 µM
[3]; Gαq, read-out: EC50, GPR40 Gαq
  EC50: 102 µM
